Data on eight molecules can be found in patent US20250002471A1 (Gilead Sciences, Inc., priority 2020, published 2025).

In this experiment the target is T1, TLR8 (Homo sapiens, UniProt Q9NR97).
T1 construct: lymphocytes, monocytes and dendritic cells that express TLR7, TLR8 and TLR9; endogenous in cells; host or cells: human PBMCs from healthy donors
T1 sequence (Q9NR97 27-1041): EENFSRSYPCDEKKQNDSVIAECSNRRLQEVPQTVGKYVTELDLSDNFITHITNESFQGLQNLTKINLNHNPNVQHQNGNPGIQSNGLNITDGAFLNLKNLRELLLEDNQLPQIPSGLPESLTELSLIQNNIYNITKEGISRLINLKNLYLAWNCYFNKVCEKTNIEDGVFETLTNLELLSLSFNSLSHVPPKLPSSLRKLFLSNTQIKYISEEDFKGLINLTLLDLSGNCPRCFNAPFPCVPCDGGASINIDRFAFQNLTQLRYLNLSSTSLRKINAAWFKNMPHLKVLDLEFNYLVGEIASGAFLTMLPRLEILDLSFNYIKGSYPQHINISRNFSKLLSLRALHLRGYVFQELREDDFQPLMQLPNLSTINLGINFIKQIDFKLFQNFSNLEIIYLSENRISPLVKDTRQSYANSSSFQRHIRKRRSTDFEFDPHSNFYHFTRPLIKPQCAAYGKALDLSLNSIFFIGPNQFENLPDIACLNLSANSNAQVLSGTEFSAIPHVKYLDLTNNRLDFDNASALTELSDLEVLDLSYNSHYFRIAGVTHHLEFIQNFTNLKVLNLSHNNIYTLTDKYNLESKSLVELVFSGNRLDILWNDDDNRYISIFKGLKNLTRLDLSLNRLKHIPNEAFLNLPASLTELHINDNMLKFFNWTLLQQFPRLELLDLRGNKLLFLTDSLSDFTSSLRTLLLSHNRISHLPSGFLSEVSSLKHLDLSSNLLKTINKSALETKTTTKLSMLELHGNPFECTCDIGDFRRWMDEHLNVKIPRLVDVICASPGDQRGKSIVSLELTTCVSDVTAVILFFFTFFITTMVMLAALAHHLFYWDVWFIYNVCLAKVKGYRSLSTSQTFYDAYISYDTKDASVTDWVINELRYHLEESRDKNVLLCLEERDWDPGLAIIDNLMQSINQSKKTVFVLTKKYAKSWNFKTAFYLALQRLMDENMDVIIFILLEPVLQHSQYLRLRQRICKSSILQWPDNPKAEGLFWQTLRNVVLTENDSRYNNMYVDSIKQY
The experiment is described as follows: TLR8 human PBMC cell-based assay, TLR8 agonist Compound A stimulation, cytokine (TNFa and IL12p40) readout. Particulars: human PBMCs, Compound A 800 nM, 6 hours; Table 26; read-out: TLR-8 EC50. The procedure: Cryopreserved human PBMCs from healthy donors were thawed and resuspended in RPMI-1640 media with L-glutamine (Corning) supplemented with 10% Fetal Bovine Serum (Hyclone) and 1X Penicillin-Streptomycin (Corning). After counting, the cell density was adjusted to 2 million cells/ml and incubated for 1 hour at 37° C., 5% CO2 for recovery. Following the recovery, the cells were plated by adding 50p per well (100,000 cells) to 384-well cell culture plates (Greiner) containing 250nl of test antagonists in 100% DMSO per well, in a 10 points dose response in quadruplicates. PBMCs were incubated in the presence of antagonists for one hour at 37° C., 5% CO2 before being stimulated with TLR8 agonist. Compound A (Gilead Sciences, U.S. Pat. No. 10,285,990) was used as the TLR8 agonist at a final concentration of 800 nM. PBMCs were incubated in the presence of antagonist and the TLR8 agonist for an additional 6 hours at 37° C., […]. At the end of the incubation, the cell culture plates were centrifuged at 500 g for 5 min, and the cell culture supernatant was collected. The level of cytokines (TNFa and IL12p40) in the supernatant was measured by electrochemiluminescence immunoassays (Mesoscale Discovery) following manufacturer's recommended protocols. The level of cytokine measured was plotted against the antagonist concentration and fitted to a sigmoidal function to determine the EC50, which are shown below in Table 11.

As to `Cc1cc(-c2[nH]c3cc(-c4ccc(N5CCNCC5)nc4)ccc3c2C)cc(C)n1` [Example 1, 2-(2,6-dimethylpyridin-4-yl)-3-methyl-6-(6-(piperazin-1-yl)pyridin-3-yl)-1H-indole], the EC50 turned out to be 0.77 µM.

Take `Cc1cc(-c2[nH]c3cc(-c4ccc(N5CCN(CCO)CC5)nc4)ccc3c2C)cc(C)n1` [Example 37, 2-(4-(5-(2-(2,6-dimethylpyridin-4-yl)-3-methyl-1H-indol-6-yl)pyridin-2-yl)piperazin-1-yl)ethan-1-ol]: the EC50 was 0.631 µM.

With `Cc1cc(-c2[nH]c3cc(C4CCNCC4)ccc3c2C)cc(C)n1` [Example 48, 2-(2,6-dimethylpyridin-4-yl)-3-methyl-6-(piperidin-4-yl)-1H-indole], the EC50 turned out to be 0.57 µM.

Turning to `Cc1cc(-c2[nH]c3cc(C4CCNCC4)ccc3c2C(C)C)cn2ncnc12` [Example 55], the EC50 is 0.00908 µM.

As to `Cc1c(-c2cc(C)c3ncnn3c2)[nH]c2cc(-c3ccc(N4CCNCC4)nc3)ccc12` [Example 71], the EC50 came out at 0.0359 µM.

Consider `Cc1cc(-c2[nH]c3cc(-c4ccc(N5CCNCC5)nc4)ccc3c2C2CC2)cn(C)c1=O` [Example 165], for which the EC50 was determined as 0.00846 µM.

For `CCc1c(-c2cc(C)c3ncnn3c2)[nH]c2cc(-c3ccc(N4CCNCC4)nc3)ccc12` [Example 167, 6-(3-ethyl-6-(6-(piperazin-1-yl)pyridin-3-yl)-1H-indol-2-yl)-8-methyl-[1,2,4]triazolo[1,5-a]pyridine], the EC50 came to 0.00375 µM.

For `CCc1c(-c2cc(OC)c3ncnn3c2)[nH]c2cc(-c3ccc(N4CCNCC4)nc3)ccc12` [Example 169], the EC50 was found to be 0.00335 µM.
